Assay results from EP3132692A1, “Compositions comprising small molecular inhibitors suitable to inhibit and stimulate signaling pathways in a manner leading to prevention of muscle atrophy” (priority 2015, dated 2017).

How the values were obtained:
[1] = target: human DNA topoisomerase II (topo II); conditions: cited from earlier work
C. Elegans = conditions: cited from earlier work
resistance trained men [2] = assay: Total creatine kinase as marker of muscle damage, efficacy study; type: in vivo
Protocol: In the efficacy study, 18 resistance trained men with at least 5 years of experience in weight lifting voluntarily participated. Participants were divided in 3 equal groups; receiving placebo (hypromellose, 2 times a day), (-)-epicatechin ((EPI), 2x 150 mg a day) and (-)-epicatechin combined with hesperetin and myricetin ((E+H+M), 2x 150+100+50 mg a day). Maximally trained individuals were chosen as further muscle gains in such groups are usually minimal, even with dietary interventions. This is primarily explained due to a fact that such trained individuals reached so called "natural genetic plateau" where muscle tissue works within physiological optimum defined by the genetic blueprints, so even radical interventions (except anabolic steroids) and exercise regime cannot bring significant results. This was confirmed by participants as they had no means to achieve particularly better results over last few years of exercise. All subjects were asked to maintain the same caloric intake during 12 week study 5 days a week exercise. […]
Body composition was examined at the beginning and the end of study using dual energy x-ray absorptiometry - DEXA scans (DiscoveryTM by Hologic). Total body estimates of fat and non-bone lean tissue were determined according to company supplied algorithms. […]

resistance trained men [3] = assay: Muscle thickness by B-mode ultrasound imaging, efficacy study; type: in vivo
Protocol: (§1) In the efficacy study, 18 resistance trained men with at least 5 years of experience in weight lifting voluntarily participated. Participants were divided in 3 equal groups; receiving placebo (hypromellose, 2 times a day), (-)-epicatechin ((EPI), 2x 150 mg a day) and (-)-epicatechin combined with hesperetin and myricetin ((E+H+M), 2x 150+100+50 mg a day). Maximally trained individuals were chosen as further muscle gains in such groups are usually minimal, even with dietary interventions. This is primarily explained due to a fact that such trained individuals reached so called "natural genetic plateau" where muscle tissue works within physiological optimum defined by the genetic blueprints, so even radical interventions (except anabolic steroids) and exercise regime cannot bring significant results. This was confirmed by participants as they had no means to achieve particularly better results over last few years of exercise. All subjects were asked to maintain the same caloric intake during 12 week study 5 days a week exercise. During 2 months study participants were taking 30 g of post exercise amino acid blend (whey, soy and casein protein) with following profile per 100 g: • Alanine 7.1g, arginine 9.2 g, aspartic acid 6.2 g, glutamic acid 21.5 g, glycine 12.2 g, histidine 1.1 g, isoleucine 6.9 g, leucine 11.1 g, methionine 0.3 g, phenylalanine 2.7 g, proline 11.2 g, serine 2.7 g, threonine 1.5 g, tyrosine 0.5 g and valine 5.8 g.
(§2) Body composition was examined at the beginning and the end of study using dual energy x-ray absorptiometry - DEXA scans (DiscoveryTM by Hologic). Total body estimates of fat and non-bone lean tissue were determined according to company supplied algorithms. Muscle thickness for Vastus lateralis and Triceps brachii lateralis was examined at the beginning and the end of study by B-mode ultrasound imaging (Toshiba PowerVision 8000) as the distance between the subcutaneous adipose tissue and inter-muscular belly interface. Total Cretine Kinase as a marker of muscle damage was performed by VITROS® 4600 (Ortho Clinical Diagnostics) at the beginning and the end of study.

resistance trained men [4] = assay: Strength measures: 1-repetition maximum (1-RM) bench press and squat, efficacy study; type: in vivo
[5] = Body composition by dual energy x-ray absorptiometry (DEXA), efficacy study; type: in vivo, men
Protocol: as §1, §2

aged men = conditions: treatment for 7 days; cited from earlier work
PPARα = target: T1, PPARα (Homo sapiens, UniProt Q07869); conditions: cited from earlier work
T1 sequence (Q07869 1-468): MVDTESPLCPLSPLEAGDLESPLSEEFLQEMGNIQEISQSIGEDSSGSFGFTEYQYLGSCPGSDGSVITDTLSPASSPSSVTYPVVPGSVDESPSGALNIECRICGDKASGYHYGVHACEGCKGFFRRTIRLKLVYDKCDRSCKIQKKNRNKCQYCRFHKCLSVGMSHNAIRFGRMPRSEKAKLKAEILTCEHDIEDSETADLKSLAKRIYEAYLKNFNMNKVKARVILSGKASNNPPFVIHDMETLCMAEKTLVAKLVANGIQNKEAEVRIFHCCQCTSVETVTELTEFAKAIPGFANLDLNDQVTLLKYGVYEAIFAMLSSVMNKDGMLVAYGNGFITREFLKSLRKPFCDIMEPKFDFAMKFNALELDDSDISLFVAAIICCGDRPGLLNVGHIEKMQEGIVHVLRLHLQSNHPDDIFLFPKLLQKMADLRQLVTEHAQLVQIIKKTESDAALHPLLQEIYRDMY

PPARγ = target: T2, PPARγ (Homo sapiens, UniProt P37231); conditions: cited from earlier work
T2 sequence (P37231 1-505): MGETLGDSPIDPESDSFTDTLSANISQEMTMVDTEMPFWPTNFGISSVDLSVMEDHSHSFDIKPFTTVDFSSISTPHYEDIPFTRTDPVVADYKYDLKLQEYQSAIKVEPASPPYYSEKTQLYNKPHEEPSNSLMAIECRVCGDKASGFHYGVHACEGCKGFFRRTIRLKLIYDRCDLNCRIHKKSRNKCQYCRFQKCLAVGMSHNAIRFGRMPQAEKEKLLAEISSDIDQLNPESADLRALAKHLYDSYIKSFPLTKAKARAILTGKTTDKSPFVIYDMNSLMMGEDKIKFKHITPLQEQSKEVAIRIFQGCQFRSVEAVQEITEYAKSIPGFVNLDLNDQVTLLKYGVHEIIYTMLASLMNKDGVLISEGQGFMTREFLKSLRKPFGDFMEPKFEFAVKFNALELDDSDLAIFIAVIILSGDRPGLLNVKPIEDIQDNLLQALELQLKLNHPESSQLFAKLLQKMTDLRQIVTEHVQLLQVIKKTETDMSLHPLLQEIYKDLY

TGFβ-II receptor = TGFβ-II receptor (Homo sapiens, UniProt P37173); conditions: 100µM; cited from earlier work
Sequence of TGFβ-II receptor (P37173 23-567): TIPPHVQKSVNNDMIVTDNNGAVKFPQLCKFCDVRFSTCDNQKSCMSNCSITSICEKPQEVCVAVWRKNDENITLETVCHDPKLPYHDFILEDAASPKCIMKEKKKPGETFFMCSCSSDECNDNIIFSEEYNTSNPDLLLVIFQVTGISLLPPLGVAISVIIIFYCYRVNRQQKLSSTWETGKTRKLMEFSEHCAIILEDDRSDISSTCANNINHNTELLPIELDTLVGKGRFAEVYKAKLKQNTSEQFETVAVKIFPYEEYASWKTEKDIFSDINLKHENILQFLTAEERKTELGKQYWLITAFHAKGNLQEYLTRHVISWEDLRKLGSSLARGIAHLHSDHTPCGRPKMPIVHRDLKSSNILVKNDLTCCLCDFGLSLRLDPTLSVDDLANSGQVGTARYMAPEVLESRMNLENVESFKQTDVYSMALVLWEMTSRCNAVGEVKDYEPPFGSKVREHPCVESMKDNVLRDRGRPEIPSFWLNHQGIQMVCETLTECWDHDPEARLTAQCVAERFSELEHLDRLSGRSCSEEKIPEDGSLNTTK

PDE4 isomer = conditions: cited from earlier work
[6] = via orange juice alongside 150 mL yogurt; cited from earlier work
[7] = system: mice subjected to freeze injury (tibialis); conditions: injections at 50mg/kg for six days; relative to control; cited from earlier work
UGT enzymes = conditions: after absorption; cited from earlier work
myoblast C2C12 cells = conditions: 100µM; low mitogen medium; cited from earlier work
[8] = BEGGINING of study, resistance trained men
[9] = END of 12 week study, EPI 2x 150 mg a day, E+H+M 2x 150+100+50 mg a day

## O=c1c(O)c(-c2cc(O)c(O)c(O)c2)oc2cc(O)cc(O)c12 [myricetin]
[1]
  IC50: 27.5 µM
C. Elegans; C. Elegans
  prolongation of average lifespan: 18%
  prolongation of maximal lifespan: 21.7%
C. Elegans; mev-1(kn1) mutants
  increase of average lifespan: 16%

## Oc1cc(O)c2c(c1)O[C@H](c1ccc(O)c(O)c1)[C@H](O)C2 [EPI, (-)-epicatechin]
Resistance trained men [2]; [8]
  Total Creatine Kinase (CK reff range: 38-120 ng/ml): 86 ± 24 ng/mL
Resistance trained men [2]; [9]
  Total Creatine Kinase (CK reff range: 38-120 ng/ml): 73 ± 16 ng/mL
Resistance trained men [3]; [8]
  Triceps Brachii Lateralis thickness: 30.8±4.4 mm
  Vastus Lateralis thickness: 23.8±3.9 mm
Resistance trained men [3]; [9]
  Triceps Brachii Lateralis thickness: 33.8±2.2 mm
  Vastus Lateralis thickness: 24.6±2.9 mm
Resistance trained men [4]; [8]
  1- RM BENCH PRESS: 148±21
  1-RM SQUAT: 153 ± 24 kg
Resistance trained men [4]; [9]
  1-RM SQUAT: 170 ± 22 kg
[5]; [8]
  Body fat: 11.2 ± 5.3 kg
  Body mass: 93.2 ± 14.6 kg
  Lean body mass: 76.4 ± 5.8 kg
[5]; [9]
  Body fat: 9.1 ± 4.2 kg
  Body mass: 93.8 ± 10.5 kg
  Lean body mass: 77.2 ± 5.8 kg
Aged men
  hand grip strength: increases
  ratio of plasma follistatin/myostatin: increases

## COc1ccc(C2CC(=O)c3c(O)cc(O)cc3O2)cc1O (stereo not shown) [hesperetin, 5,7,3'-trihydroxy-4'-methoxyflavanone]
PPARα
  concentration range of concentration dependent stimulation of PPARα activity: 20 to 160 µM
PPARγ
  concentration range of concentration dependent stimulation of PPARγ activity: 20 to 160 µM
TGFβ-II receptor
  ability of a ligand to associate with the TGFβ-II receptor: approximately halve
PDE4 isomer
  IC50: 28.2 ± 1.1 µM

## COc1ccc(C2CC(=O)c3c(O)cc(OC4OC(COC5OC(C)C(O)C(O)C5O)C(O)C(O)C4O)cc3O2)cc1O (stereo not shown) [hesperidin, hesperetin-7-O-rutinoside]
[6]
  reduction of Cmax of the main metabolite (hesperitin-7-O-glucuronide): 29%
  reduction of overall exposure (AUC) of the main metabolite: 27%
[7]
  muscle regenerative capabilities: significantly enhanced
UGT enzymes
  found as hesperetin monoglucuronide: up to 87%
  found as sulphoglucuronides: 13%
Myoblast C2C12 cells
  myocyte differentiation: able to promote myocyte differentiation
